The record followed here is patent US20240158392A1 (Janssen Biotech, Inc., priority 2021, published 2024).

In the assay the target is SIK2 (Homo sapiens, UniProt Q9H0K1). The experiment in a line: SIK2 Enzymatic Assay High Version 2 (High ATP). In kind it is biochemical. In outline: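 At room temperature, enzyme (6 nM, 2× final) was preincubated with compound for 30 min, then 6 mM ATP and 400 μM HDAC5tide (both 2× final) were added for 2 h. ADP formed was measured by ADP-Glo Max (2 h reagent, 1 h detection) using luminescence.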

Setting [1] is: enzyme 6 nM, 6 mM ATP and 400 μM HDAC5tide (each 2× final concentration), 30 minutes pre-incubation, 2 hours, ADP-Glo Max luminescence, read-out: SIK2 high ATP IC50 (μM) (Test Example 2).

Where two headings read alike, the source gives them in different places.

Sequence of SIK2 (Q9H0K1 whole entry, species assumed): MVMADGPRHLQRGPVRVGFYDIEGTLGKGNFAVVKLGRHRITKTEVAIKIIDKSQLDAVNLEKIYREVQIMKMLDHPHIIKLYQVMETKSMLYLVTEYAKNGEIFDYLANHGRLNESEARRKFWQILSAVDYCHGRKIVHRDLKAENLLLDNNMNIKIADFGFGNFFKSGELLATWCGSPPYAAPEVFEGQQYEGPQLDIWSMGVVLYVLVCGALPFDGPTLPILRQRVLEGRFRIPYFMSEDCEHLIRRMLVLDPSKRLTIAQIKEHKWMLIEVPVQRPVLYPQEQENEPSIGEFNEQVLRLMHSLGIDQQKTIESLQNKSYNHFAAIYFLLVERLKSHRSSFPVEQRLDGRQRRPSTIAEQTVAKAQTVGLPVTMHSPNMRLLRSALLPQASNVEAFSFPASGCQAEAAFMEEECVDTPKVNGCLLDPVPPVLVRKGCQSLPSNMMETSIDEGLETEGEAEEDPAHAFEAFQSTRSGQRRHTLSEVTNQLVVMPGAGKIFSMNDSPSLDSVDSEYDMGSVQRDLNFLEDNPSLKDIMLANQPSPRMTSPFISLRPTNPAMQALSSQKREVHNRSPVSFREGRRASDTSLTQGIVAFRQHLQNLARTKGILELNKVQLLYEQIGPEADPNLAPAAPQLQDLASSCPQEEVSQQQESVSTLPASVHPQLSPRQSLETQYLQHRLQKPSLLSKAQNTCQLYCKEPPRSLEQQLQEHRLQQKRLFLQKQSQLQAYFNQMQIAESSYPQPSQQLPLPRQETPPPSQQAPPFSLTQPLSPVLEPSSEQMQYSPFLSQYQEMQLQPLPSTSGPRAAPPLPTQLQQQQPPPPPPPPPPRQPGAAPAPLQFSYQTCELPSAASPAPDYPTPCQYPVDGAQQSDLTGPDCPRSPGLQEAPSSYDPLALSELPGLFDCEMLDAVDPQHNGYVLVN

The compound `CC(=O)N1[C@@H]2COC[C@H]1C[C@@H](Oc1cnc(C)cc1-c1ccn3nc(Nc4ccc(=O)n(C)n4)cc3c1)C2` [Example 637, 6-((5-(5-(((1R,5S,7s)-9-acetyl-3-oxa-9-azabicyclo[3.3.1]nonan-7-yl)oxy)-2-methylpyridin-4-yl)pyrazolo[1,5-a]pyridin-2-yl)amino)-2-methylpyridazin-3(2H)-one] displayed an IC50 of 0.00642 µM.
Regarding `Cc1cc(Nc2cc3cc(-c4cc(C)ncc4OCC(C)(C)O)ccn3n2)nc(C(=O)NC2CC2)c1` [Example 638, N-cyclopropyl-6-[[5-[5-(2-hydroxy-2-methyl-propoxy)-2-methyl-4-pyridyl]pyrazolo[1,5-a]pyridin-2-yl]amino]-4-methyl-pyridine-2-carboxamide], under setting [1], the IC50 worked out at 0.149 µM.
As to `Cc1cc(-c2ccn3nc(Nc4ccc(C(=O)NC5CC5)cn4)cc3c2)c(OCC(C)(C)O)cn1` [Example 639, N-cyclopropyl-6-[[5-[5-(2-hydroxy-2-methyl-propoxy)-2-methyl-4-pyridyl]pyrazolo[1,5-a]pyridin-2-yl]amino]pyridine-3-carboxamide], the IC50 under setting [1] came out at 0.0887 µM.
For the compound `Cc1cc(-c2ccn3nc(Nc4cc(C)nc(C(=O)NC5CC5)n4)cc3c2)c(OCC(C)(C)O)cn1` [Example 640, N-cyclopropyl-4-[[5-[5-(2-hydroxy-2-methyl-propoxy)-2-methyl-4-pyridyl]pyrazolo[1,5-a]pyridin-2-yl]amino]-6-methyl-pyrimidine-2-carboxamide], the IC50 under setting [1] was found to be 0.0295 µM.
Turning to `Cc1ncc(Nc2cc3cc(-c4cc(OC(F)F)ncc4OCC(C)(C)C#N)ccn3n2)cn1` [Example 641, 3-[[6-(difluoromethoxy)-4-[2-[(2-methylpyrimidin-5-yl)amino]pyrazolo[1,5-a]pyridin-5-yl]-3-pyridyl]oxy]-2,2-dimethyl-propanenitrile], under setting [1], the IC50 amounted to 0.111 µM.
For `COC(=O)c1ccc(Nc2cc3cc(-c4cc(C)ncc4OCC(C)(C)O)ccn3n2)cc1OC` [Example 642, methyl 4-[[5-[5-(2-hydroxy-2-methyl-propoxy)-2-methyl-4-pyridyl]pyrazolo[1,5-a]pyridin-2-yl]amino]-2-methoxy-benzoate], the IC50 under setting [1] is 0.00171 µM.
Still for that read-out and setting: in the case of `COc1cc(Nc2cc3cc(-c4cc(C)ncc4OCC(C)(C)O)ccn3n2)ccc1C(=O)NC1CC1` [Example 643, N-cyclopropyl-4-[[5-[5-(2-hydroxy-2-methyl-propoxy)-2-methyl-4-pyridyl]pyrazolo[1,5-a]pyridin-2-yl]amino]-2-methoxy-benzamide] it was 0.157 µM; in that of `Cc1cc(-c2ccn3nc(Nc4cc(C)nc(C(=O)NCC(F)(F)F)n4)cc3c2)c(OCC(C)(C)O)cn1` [Example 644, 4-[[5-[5-(2-hydroxy-2-methyl-propoxy)-2-methyl-4-pyridyl]pyrazolo[1,5-a]pyridin-2-yl]amino]-6-methyl-N-(2,2,2-trifluoroethyl)pyrimidine-2-carboxamide], 0.0734 µM; in that of `COc1cc(Nc2cc3cc(-c4cc(C)ncc4O[C@H]4CC[C@H](O)CC4)ccn3n2)cc(OC)c1` [Example 645, (1r,4r)-4-((4-(2-((3,5-dimethoxyphenyl)amino)pyrazolo[1,5-a]pyridin-5-yl)-6-methylpyridin-3-yl)oxy)cyclohexan-1-ol], 0.325 µM.
The same measure, in the same setting: in the case of `COc1cc(Nc2cc3cc(-c4cc(C)ncc4OCC(C)(C)O)ccn3n2)cc(OC)c1` [Example 646, 1-[[4-[2-(3,5-dimethoxyanilino)pyrazolo[1,5-a]pyridin-5-yl]-6-methyl-3-pyridyl]oxy]-2-methyl-propan-2-ol] it was 0.0313 µM; in that of `Cc1cc(-c2ccn3nc(Nc4cc(C)nc(C(=O)NCC(C)(C)O)n4)cc3c2)c(OCC(C)(C)O)cn1` [Example 647, 4-[[5-[5-(2-hydroxy-2-methyl-propoxy)-2-methyl-4-pyridyl]pyrazolo[1,5-a]pyridin-2-yl]amino]-N-(2-hydroxy-2-methyl-propyl)-6-methyl-pyrimidine-2-carboxamide], 0.117 µM.
As for `COc1cc(Nc2cc3cc(-c4cc(C)ncc4OCC(C)(C)O)ccn3n2)cc(OC(F)F)c1C(=O)NC1CC1` [Example 648, N-cyclopropyl-2-(difluoromethoxy)-4-[[5-[5-(2-hydroxy-2-methyl-propoxy)-2-methyl-4-pyridyl]pyrazolo[1,5-a]pyridin-2-yl]amino]-6-methoxy-benzamide], the 50% inhibitory concentration (IC50) under setting [1] was 0.0887 µM.
Regarding `COc1cc(Nc2cc3cc(-c4cc(C)ncc4O[C@H]4CC[C@H](O)CC4)ccn3n2)cc(F)c1C(=O)NC1CC1` [Example 649], the IC50 under setting [1] amounted to 0.166 µM.
Consider `Cc1cc(-c2ccn3nc(Nc4cc(C(F)(F)F)c(C(=O)NC(C)C)cn4)cc3c2)c(OCC(C)(C)O)cn1` [Example 650, 6-[[5-[5-(2-hydroxy-2-methyl-propoxy)-2-methyl-4-pyridyl]pyrazolo[1,5-a]pyridin-2-yl]amino]-N-isopropyl-4-(trifluoromethyl)pyridine-3-carboxamide], for which the IC50 under setting [1] came out at 0.0868 µM.
`Cc1cc(-c2ccn3nc(Nc4cc(C(F)(F)F)c(C(=O)NCC(F)(F)F)cn4)cc3c2)c(OCC(C)(C)O)cn1` [Example 651, 6-[[5-[5-(2-hydroxy-2-methyl-propoxy)-2-methyl-4-pyridyl]pyrazolo[1,5-a]pyridin-2-yl]amino]-N-(2,2,2-trifluoroethyl)-4-(trifluoromethyl)pyridine-3-carboxamide]: under setting [1], the IC50 is 0.194 µM.
The same measure, in the same setting: under `Cc1cc(-c2ccn3nc(Nc4nccc(C)c4F)cc3c2)c(OCC(C)(C)O)cn1` [Example 652, 1-[[4-[2-[(3-fluoro-4-methyl-2-pyridyl)amino]pyrazolo[1,5-a]pyridin-5-yl]-6-methyl-3-pyridyl]oxy]-2-methyl-propan-2-ol] stands 0.557 µM; under `Cc1cc(-c2cn3cc(NC(=O)C4CC4)nc3cn2)c(O[C@H]2CC[C@H](O)CC2)cn1` [Example 653, N-[6-[5-(4-hydroxycyclohexoxy)-2-methyl-4-pyridyl]imidazo[1,2-a]pyrazin-2-yl]cyclopropanecarboxamide], 0.136 µM.
Same read-out and setting: under `Cc1cc(-c2cn3cc(NC(=O)C4CC4)nc3cn2)c(OC2CN(C)C2)cn1` [Example 654, N-[6-[2-methyl-5-(1-methylazetidin-3-yl)oxy-4-pyridyl]imidazo[1,2-a]pyrazin-2-yl]cyclopropanecarboxamide] stands 0.0743 µM.
Regarding `Cc1cc(-c2cn3cc(NC(=O)C4CC4)nc3cn2)c(O[C@H]2CC[C@@H](O)CC2)cn1` [Example 655, N-[6-[5-(4-hydroxycyclohexoxy)-2-methyl-4-pyridyl]imidazo[1,2-a]pyrazin-2-yl]cyclopropanecarboxamide], the IC50 under setting [1] worked out at 0.0943 µM.
The same measure, in the same setting: under `Cc1cc(-c2cn3cc(Nc4cncc(C)n4)nc3cn2)c(O[C@H]2CC[C@H](O)CC2)cn1` [Example 657, 4-[[6-methyl-4-[2-[(6-methylpyrazin-2-yl)amino]imidazo[1,2-a]pyrazin-6-yl]-3-pyridyl]oxy]cyclohexanol] stands 0.984 µM; under `Cc1cc(Nc2cc3cc(-c4cc(OCC(F)(F)F)ncc4OCC(C)(C)C#N)ccn3n2)nc(C)n1` [Example 659, 3-[[4-[2-[(2,6-dimethylpyrimidin-4-yl)amino]pyrazolo[1,5-a]pyridin-5-yl]-6-(2,2,2-trifluoroethoxy)-3-pyridyl]oxy]-2,2-dimethyl-propanenitrile], 0.157 µM.
